Source: article PMC4201470, “THDP17 Decreases Ammonia Production through Glutaminase Inhibition. A New Drug for Hepatic Encephalopathy Therapy” (PLoS ONE, 2014)
“Also recorded” adds a separate entry of the source. Marks after values point to notes of the source that are not given here.

Experiments:
PAG [1] = target: T1, PAG (Rattus norvegicus, UniProt P13264); assay: In vitro PAG inhibition by drugs used in HE therapy; format: biochemical; conditions: for effect on PAG activity in vitro: 10 mM
T1 sequence (P13264 55-674): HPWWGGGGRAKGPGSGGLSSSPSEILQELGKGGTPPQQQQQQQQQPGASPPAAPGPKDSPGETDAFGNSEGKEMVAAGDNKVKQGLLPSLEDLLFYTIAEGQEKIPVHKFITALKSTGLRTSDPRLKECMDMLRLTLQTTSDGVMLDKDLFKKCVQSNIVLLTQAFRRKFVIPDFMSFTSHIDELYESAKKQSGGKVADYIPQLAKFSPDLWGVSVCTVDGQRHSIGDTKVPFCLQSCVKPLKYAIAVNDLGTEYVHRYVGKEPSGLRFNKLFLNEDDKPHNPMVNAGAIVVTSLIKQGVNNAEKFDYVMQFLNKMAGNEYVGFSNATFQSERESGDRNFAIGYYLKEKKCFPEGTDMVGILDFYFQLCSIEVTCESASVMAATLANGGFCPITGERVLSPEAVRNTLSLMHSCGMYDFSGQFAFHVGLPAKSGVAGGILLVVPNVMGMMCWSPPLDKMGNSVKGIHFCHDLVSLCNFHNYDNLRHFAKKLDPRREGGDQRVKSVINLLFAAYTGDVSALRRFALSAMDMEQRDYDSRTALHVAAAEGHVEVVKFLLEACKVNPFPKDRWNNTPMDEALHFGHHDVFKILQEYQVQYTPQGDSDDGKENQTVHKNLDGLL
Experimental: (§1) PAG inhibition analysis by different thiourea derivatives (THDP) was assayed in vitro, using the method of Heini for glutaminase activity determination, adapted to a microtiter procedure. This assay is based on the use of o-phthaldialdehyde/mercaptoethanol as a reagent for estimating ammonia released from glutamine. Briefly, 25 µl samples were added to 35 µl of a mixture of 150 mM potassium phosphate, 171 mM glutamine, 1 mM ammonium chloride, pH 8.0 and then incubated at 37°C for 45 min. The reaction was stopped by adding 10 µl 7% trichloroacetic acid, kept on ice for 15 min and centrifuged 5 min at 1000 × g. Aliquots of 5 µl/well were then mixed with 150 µl o-phthalaldehyde/mercaptoethanol reagent (14.4 ml 200 mM potassium phosphate, pH 7.4, 0.8 ml 72 mM mercaptoethanol in ethanol and 0.8 ml 186 mM o-phthaldialdehyde in ethanol). The samples were kept at room temperature in the dark and absorbance measured at 410 nm with a UV-Visible spectrophotometer (BioRad) after 45 min.
PAG activity inhibition was analyzed using 10 mM concentration. PAG activity in vitro was no affected by neomycin, lactitol and lactulose, rather, an increased activity was observed.

[2] = tested on: glutaminase activity in Caco2 cells; assay: Glutaminase inhibition by metformin in Caco2 cells; format: cell-based
Experimental: 6-Diazo-5-oxo-L-norleucine (DON) (0–100 µM) was used as positive control.

[3] = target: T2, glutaminase obtained from both kidney and intestine mitochondria (K-PAG) (Rattus norvegicus, UniProt P13264); assay: In vitro inhibition screening of glutaminase activity (Heini method, ammonia released from glutamine); format: biochemical
T2 construct: an enriched preparation of glutaminase obtained from both kidney and intestine mitochondria; from tissue; host or cells: rat kidney and intestine mitochondria, solubilised with 1% Triton X-100
T2 sequence (P13264 55-674): T1 sequence (P13264 55-674)
Experimental: as §1, with “Aliquots of 5 µl/well were then mixed with 150 µl o-phthalaldehyde/mercaptoethanol reagent (14.4 ml 200 mM potassium phosphate, pH 7.4, 0.8 ml 72 mM mercaptoethanol in ethanol and 0.8 ml 186 mM o-phthaldialdehyde in ethanol).” left out
(§2) K-PAG activity was assayed, in presence and absence of the inhibitor; using isolated mitochondria from rat intestine and kidney, solubilized with 1% Triton X-100 as a source of glutaminase. Enzymatic activity was measured using a two-step assay as described by Lund. Protein concentration was determined following Bradford method using serum albumin as standard.
The first group analysed in this work is integrated by a small molecule compounds library derived from thiourea. […]

[4] = tested on: swine K-PAG (from kidney); assay: In vitro optimised kinetic assay with increasing inhibitor concentrations; format: biochemical
Experimental: as §2
First, increasing concentration of inhibitors (ranging from 1 µM to 10 mM) were added to standard and optimized enzymatic assay conditions with 99 mmol/l glutamine, 150 mmol/l phosphate and 100 µg K-PAG (Figure 1).

PAG [5] = assay: PAG kinetic parameters in absence and presence of THDP-17 (double reciprocal plot); format: biochemical, swine
Experimental: as §2
Figure 3 THDP17 inhibition kinetics. A lineal double reciprocal plot (1/v against 1/[Gln]) in absence (0) and presence (10 µM) of the inhibitor is shown. […] All experiments were performed in triplicates; p>0.05.

Caco-2 cells = assay: Cytotoxicity assay in Caco-2 cells after 24 h exposure; format: cell-based; conditions: Caco-2, 24 h exposure
Experimental: Regression analysis of dose-response curves and calculation of IC50 were done according to standard procedure using appropriated software.
Acute toxicity test in animals is typically the first step in the evaluation of the effects of a chemical compound, and its primary purpose is to provide information on potential health hazards that may result from a short-term exposure. […] In the present work, cytotoxicity of a 24 h-exposure to selected inhibitors was evaluated in Caco-2 cells using the MTT method developed by Mosmann and modified by Denizot and Lang.

[6] = tested on: glutaminase activity (PAG) in Caco-2 cells; assay: Inhibition assay in cell culture (glutamate produced from glutamine, HPLC); format: cell-based
Description: Results are shown on Figure 4.

C57BL/6 mice [7] = assay: Acute toxicity, oral administration to 12 h fasted mice; format: in vivo; conditions: for Deaths before 6 h / Deaths before 12 h: oral, N=3
Experimental: (§3) Lethal dose was determined by oral administration of the compounds to C57BL/6 mice. Thirty mice were supplied by the Centre of Production and Experimental animal of Espartinas, University of Seville, Spain. The animals were housed ten per cage, and maintained at constant room temperature (22°C ±2°C), with artificial light-dark cycle of 12 h and a relative humidity of 65%−70%, and free access to food and water during 2 weeks for acclimation. All animal procedures were performed with approval from the Sevilla University Animal Ethics Committees, under the guidelines of the directive 86/609/CEE of the European Union. Two assays in different conditions were performed. […] They were sacrificed 24 h latter and a macroscopic analysis of the tissues (lungs, heart, liver, stomach and intestine) was performed. […] In this case, mice were sacrificed 24 or 72 h latter and the same macroscopic analysis was performed.
(§4) The undiluted compound has low systemic toxicity but a marked local necrotizing and inflammatory effect when it is administered orally. […] There were few fluctuations in histopathological values but no changes appear to be drug-related or of significance. […] Therefore, we repeat the assay using feed animals.

C57BL/6 mice [8] = assay: Acute toxicity, oral administration to mice with free access to food and water; format: in vivo; conditions: for Deaths before 6 h / Deaths before 12 h / Deaths before 24 h: N=4
Experimental: as §3, §4

[9] = fed mice, oral, 50 mg/Kg in DMSO
[10] = fed mice, oral, 300 mg/Kg in DMSO

In the case of `OC[C@H]1O[C@@H](O[C@@H]2[C@@H](CO)OC(O)(CO)[C@H]2O)[C@H](O)[C@@H](O)[C@H]1O` (mixture of isomers) [lactulose], the “effect on PAG activity in vitro” value (PAG [1]) is reported as “no affected”.
`OC[C@@H](O)[C@@H](O[C@@H]1O[C@H](CO)[C@H](O)[C@H](O)[C@H]1O)[C@H](O)[C@@H](O)CO` [lactitol] was tested, and the “effect on PAG activity in vitro” value (PAG [1]) was “no affected”.
`CN(C)C(=N)N=C(N)N` [metformin] was tested, and the inhibition kinetics (PAG [1]; Dixon plot) was “competitive inhibition kinetics”, the inhibition at 10000 µM (PAG [1]; read-out: PAG inhibition) was 17.5% and the inhibition at 100000 µM (PAG [1]; read-out: PAG inhibition) was 68%. The “inhibition rates at higher concentrations” value ([2]; Caco2, 50, 100 and 200 mM) was “did not yield higher inhibition rates” and the inhibition at 20000 µM ([2]; Homo sapiens, Caco-2, 72 h) was 24%.
With “N-(3-methyl-3-butenyl)-N′-phenylthiourea [THDP-17]” the “inhibition of intestinal glutaminase activity” value ([3]; THDP-17 10 µM) was 57.4±6.7%, the “inhibition of K-PAG activity (screening result)” value ([3]; thiourea library screening) was “could inhibit K-PAG activity” and the IC50 ([4]; 99 mmol/l glutamine, 150 mmol/l phosphate, 100 µg K-PAG) was 3.9 ± 0.1 µM. The “extent of PAG inhibition at low milimolar concentrations” value ([4]; low milimolar concentrations, plateau) was “inhibits PAG activity partially”, the inhibition model (PAG [5]; double reciprocal plot) was “not-pure-uncompetitive inhibitor; also recorded: uncompetitive inhibition” and the Vmax (PAG [5]; with THDP-17 10 µM) was 384.62 µmol/min. For the same compound, the Vmax-ap (PAG [5]; with THDP-17 10 µM, without inhibitor 0.67 mmol min^-1) was 0.38 mmol/min, the “cytotoxicity (cell viability)” value (Caco-2 cells) was “did not show cytotoxicity” and the “concentration at which PAG inhibition in cell cultures is effective” value ([6]; Caco-2) was “higher than 5 µM”. The “PAG inhibition in cell cultures” value ([6]; Caco-2, 20 µM) was 18±2.1%, the “PAG inhibition in cell cultures” value ([6]; Caco-2, 100 µM) was 46±3.4% and the “macroscopic findings in the gastrointestinal tract” value (C57BL/6 mice [7]; also seen with DMSO vehicle alone) was “gastrointestinal ulcers and duodenum bleeding”. For the same compound, the “histopathological damages in lungs, heart or liver” value (C57BL/6 mice [7]; compared to DMSO alone) was “No essential or histopathological damages”, the “Deaths before 6 h” value (C57BL/6 mice [7]; 50 mg/Kg in DMSO) was 1 and the “Deaths before 12 h” value (C57BL/6 mice [7]; 50 mg/Kg in DMSO) was 1. For the same compound, the “Deaths before 6 h” value (C57BL/6 mice [7]; 300 mg/Kg in DMSO) was 1, the “Deaths before 12 h” value (C57BL/6 mice [7]; 300 mg/Kg in DMSO) was 1 and the “Deaths before 6 h” value (C57BL/6 mice [7]; 2000 mg/Kg in DMSO) was 2. For the same compound, the “Deaths before 12 h” value (C57BL/6 mice [7]; 2000 mg/Kg in DMSO) was 1, the “deaths during the experimental period” value (C57BL/6 mice [8]; fed mice) was “no deaths were observed” and the macroscopic organs analysis (C57BL/6 mice [8]; fed mice sacrificed at 24 and 72 h, less pronounced than in fasted group) was “gastrointestinal ulcers and duodenum bleeding”. The “Deaths before 6 h” value (C57BL/6 mice [8]; [9]) was 0, the “Deaths before 12 h” value (C57BL/6 mice [8]; [9]) was 0 and the “Deaths before 24 h” value (C57BL/6 mice [8]; [9]) was 0. The “Deaths before 12 h” value (C57BL/6 mice [8]; [10]) was 0, the “Deaths before 24 h” value (C57BL/6 mice [8]; [10]) was 0 and the “Deaths before 6 h” value (C57BL/6 mice [8]; fed mice, oral, 300 mg/Kg in DMSO, animal without water) was 1 ^*. The “toxicity in vivo (conclusion)” value (C57BL/6 mice [8]; mice, oral) was “no toxic in vivo”.
For neomycin, the “effect on PAG activity in vitro” value (PAG [1]) was “no affected”.
